From patent US20240408051A1, “ADMINISTRATION METHOD OF A CHEMOTHERAPEUTIC AGENT” (priority 2021, published 2024)

Experiments:
[1] = system: SW 1088 cells, A-172 cells, U-87 MG cells; assay: Cell viability using MTT dye; assay type: cell-based; settings: Stiripentol at 250 μ/M; SW 1088, A-172, U-87 MG cells; vs untreated negative control
Experimental: The present disclosure uses Stiripentol as a chemotherapeutic agent to treat brain tumor. Referring to FIG. 1, the cell viability is determined by using MTT dye (3-(4,5-dimethylthiazol-2-yl)-2,5-diphenyltetrazolium bromide and neutral red dye (3-amino-7-dimethylamino-2-methyl-phenazine hydrochloride). Cancer cells from various cell lines (SW 1088 cells, A-172 cells, U-87 MG cells) are incubated with, Stiripentol in the concentration range of 100-250 μ/M. Simultaneously all the cell lines are incubated with etoposide (positive control) in the concentration of 50 μ/M. The cells lines were thereafter treated with 0.05% (w/v) MTT dye for 4 h at 37° C. and DMSO. The cells lines that received no treatment are used as negative control. […] Cells can be incubated with drugs at indicated concentrations and time points. For the MTT assay, at the end of the drug treatments, cells are treated with 0.05% (w/v) MTT dye for 4 h at 37° C. The formazan crystals are dissolved in DMSO and absorbance was measured at 570 nm using the spectrophotometer. Similarly for neutral red assay, Cells are incubated with drugs at indicated concentrations and time points. Briefly, at the end of the drug treatments, cells are incubated with 40 μg/ml neutral red dye for 4 h at 37° C. […] Absorbance was measured at 540 nm using Tecan spectrophotometer.

[2] = system: SW 1088 cells, A-172 cells, U-87 MG cells; assay: Cell viability using neutral red dye; assay type: cell-based; settings: Stiripentol at 250 μ/M; after 24 hours; SW 1088, A-172, U-87 MG cells; vs untreated negative control
Experimental: According to an embodiment the Cell viability can be determined using MTT dye (3-(4,5-dimethylthiazol-2-yl)-2,5-diphenyltetrazolium bromide) and neutral red dye (3-amino-7-dimethylamino-2-methyl-phenazine hydrochloride). Cells can be incubated with drugs at indicated concentrations and time points. For the MTT assay, at the end of the drug treatments, cells are treated with 0.05% (w/v) MTT dye for 4 h at 37° C. The formazan crystals are dissolved in DMSO and absorbance was measured at 570 nm using the spectrophotometer. Similarly for neutral red assay, Cells are incubated with drugs at indicated concentrations and time points. Briefly, at the end of the drug treatments, cells are incubated with 40 μg/ml neutral red dye for 4 h at 37° C. Cells were then destained using a solution (50% ethanol, 49% deionized water, and 1% glacial acetic acid). Absorbance was measured at 540 nm using Tecan spectrophotometer. Referring to FIG. 2, cell viability can be determined by utilizing natural red dye (3-amino-7-dimethylamino-2-methyl-phenazine hydrochloride). Cancer cells from various cell lines namely SW 1088 cells, A-172 cells, U-87 MG cells are incubated with Stiripentol and Doxorubicin (used as positive control) in the concentration range of 50-250 μ/M. thereafter the cells are treated with 40 μg/ml neutral red dye for 4 h at 37° C. and destained. […]

[3] = system: SW 1088 cells, A-172 cells, U-87 MG cells; assay: Cell proliferation activity using BrdU assay; assay type: cell-based; settings: Stiripentol at 250 μ/M; after 72 hours; SW 1088, A-172, U-87 MG cells; vs untreated negative control
Experimental: Referring to FIG. 3, cell proliferative activity of the cancer cells can be determined using BrdU assay. Cancer cells from cell lines namely SW 1088 cells, A-172 cells, U-87 MG cells are incubated with Stiripentol and Doxorubicin (used as positive control) in the concentration range of 50-250 μ/M. The cell lines are treated with 10 micromolar of BrdU for 2 hours and washed with PBS and Formaldehyde. The treated cell lines are incubated with primary antibody and the secondary antibody. The untreated cells lines are used as negative control here.

LDH enzyme from U-87 MG = assay: LDH inhibitory activity; assay type: biochemical; settings: Stiripentol at 200 μ/M; after 24 hours; 1.7 mM pyruvate, 250 μM β-NADH; homogenized U-87 MG cells
Experimental: Cancer cells up regulate glycolysis to support rapid growth. LDH is an enzyme part of glycolysis. Referring to FIG. 4 LDH inhibitory activity of Stiripentol can be measured by using LDH enzyme from U-87 MG. The cell culture media is treated with HEPES buffer. Cells are homogenized and treated with the respective drug. Cancer cells thereafter are incubated with Oxamate (used as positive control) at 250 μ/M and Stiripentol at 100 and 200 μ/M respectively. The treated cells are mixed with 1.7 mM of pyruvate and 250 μM of β-NADH.

With CC(C)(C)C(O)/C=C/c1ccc2c(c1)OCO2 (stereo not shown) [Stiripentol, 4,4-dimethyl-1-[3,4-(methylendioxy)-phenyl]-1penten-3-ol] the “cell viability (MTT dye)” value [1] was “substantial decrease in the cell viability”, the “viability of the cancer cells (natural red dye)” value [2] was “substantial reduction in the viability” and the “cell proliferation activity (BrdU)” value [3] was “substantial reduction in the cell proliferation activity”. The “LDH inhibitory activity (production of LDH enzyme)” value (LDH enzyme from U-87 MG) was “substantial decrease in the production of LDH enzyme”.
